Laboratory results from ChEMBL document CHEMBL1201862, “PubChem BioAssay data set” (2004).
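Values below derive from 48-hour exposures of cells grown in 96-well plates, with endpoints linearly interpolated between the two concentrations bracketing the appropriate inhibition level. GI50: concentration for 50% inhibition of growth.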 Calls of active or inactive are those of the source. Cut-off read from the data, not from the text of the source: active = GI50 up to about 1.1 µM and inactive = higher.

Assays:
Assay in all cases: NCI tumour cell line growth inhibition, 48 h
ACHN = tested on: ACHN
CAKI-1 = tested on: CAKI-1
DMS-273 = tested on: DMS-273
HCC 2998 = tested on: HCC 2998
HCT-116 = tested on: HCT-116
HCT-15 = tested on: HCT-15
KM-20L2 = tested on: KM-20L2
M19-MEL = tested on: M19-MEL
OVCAR-3 = tested on: OVCAR-3
OVCAR-4 = tested on: OVCAR-4
SF-539 = tested on: SF-539
SN12C = tested on: SN12C
SW-620 = tested on: SW-620
U-251 = tested on: U-251
CCRF-CEM = tested on: CCRF-CEM
LOX IMVI = tested on: LOX IMVI
MCF7 = tested on: MCF7
NCI/ADR-RES = tested on: NCI/ADR-RES
RXF 393 = tested on: RXF 393
SNB-19 = tested on: SNB-19

Row | Compound | GI50 (ACHN) | GI50 (CAKI-1) | GI50 (DMS-273) | GI50 (HCC 2998) | GI50 (HCT-116) | GI50 (HCT-15) [µM] | GI50 (KM-20L2) | GI50 (M19-MEL) | GI50 (OVCAR-3) | GI50 (OVCAR-4) | GI50 (SF-539) | GI50 (SN12C) | GI50 (SW-620) | GI50 (U-251) | GI50 (CCRF-CEM) | GI50 (LOX IMVI) | GI50 (MCF7) | GI50 (NCI/ADR-RES) | GI50 (RXF 393) | GI50 (SNB-19)
1 | Cc1ccc(NP(=O)(Oc2ccccc2)N(CCCl)CCCl)cc1 (stereo unspecified) | 34.6 µM (inactive) | > 100 µM (inactive) | > 100 µM (inactive) | 3.56 µM (inactive) | 21.2 µM (inactive) | 45.2 | 76.7 µM (inactive) | 28.7 µM (inactive) | 54.6 µM (inactive) | 51.3 µM (inactive) | > 100 µM (inactive) | 91 µM (inactive) | > 100 µM (inactive) | > 100 µM (inactive) | – | – | – | – | – | –
2 | CC(=O)c1c(-c2ccco2)c(C#N)c(=S)n(C2OC(CO)C(O)C(O)C2O)c1C (stereo unspecified) | > 100 µM (inactive) | > 100 µM (inactive) | – | – | > 100 µM (inactive) | > 100 | – | – | > 100 µM (inactive) | 75 µM (inactive) | 56 µM (inactive) | 71.3 µM (inactive) | > 100 µM (inactive) | 51.1 µM (inactive) | 83.9 µM (inactive) | 56.6 µM (inactive) | 88.5 µM (inactive) | 75.9 µM (inactive) | > 100 µM (inactive) | 83.6 µM (inactive)
3 | O=c1c2c(nc3[nH]ccn13)CCCC2 | > 10 µM (inactive) | > 10 µM (inactive) | – | > 10 µM (inactive) | > 10 µM (inactive) | > 10 | – | – | > 10 µM (inactive) | > 10 µM (inactive) | > 10 µM (inactive) | > 10 µM (inactive) | > 10 µM (inactive) | > 10 µM (inactive) | > 10 µM (inactive) | > 10 µM (inactive) | > 10 µM (inactive) | > 10 µM (inactive) | > 10 µM (inactive) | > 10 µM (inactive)
4 | O=C(O)/C=C/c1nc2ccccc2c(=O)o1 | > 100 µM (inactive) | – | > 100 µM (inactive) | > 100 µM (inactive) | > 100 µM (inactive) | > 100 | > 100 µM (inactive) | > 100 µM (inactive) | > 100 µM (inactive) | > 100 µM (inactive) | > 100 µM (inactive) | > 100 µM (inactive) | > 100 µM (inactive) | > 100 µM (inactive) | 77.3 µM (inactive) | > 100 µM (inactive) | – | – | – | > 100 µM (inactive)
5 | Cc1ccc([N+](=O)[O-])cc1S(=O)(=O)Nc1ccc(C2=NNC(c3ccccc3O)C2)cc1 (stereo unspecified) | 23.6 µM (inactive) | 25.1 µM (inactive) | – | 34.7 µM (inactive) | 21.9 µM (inactive) | 21.2 | – | – | 13.5 µM (inactive) | 19.8 µM (inactive) | 40.8 µM (inactive) | 23.9 µM (inactive) | 31 µM (inactive) | – | 16.6 µM (inactive) | 34.8 µM (inactive) | 23.1 µM (inactive) | 24.8 µM (inactive) | 15.2 µM (inactive) | 33.8 µM (inactive)
6 | Cc1nc2c(c(=O)[nH]1)S/C(=C(/C#N)c1nc3ccccc3[nH]1)N2c1ccccc1 | > 100 µM (inactive) | > 100 µM (inactive) | > 100 µM (inactive) | > 100 µM (inactive) | > 100 µM (inactive) | > 100 | > 100 µM (inactive) | > 100 µM (inactive) | > 100 µM (inactive) | > 100 µM (inactive) | > 100 µM (inactive) | > 100 µM (inactive) | > 100 µM (inactive) | > 100 µM (inactive) | > 100 µM (inactive) | – | – | – | > 100 µM (inactive) | > 100 µM (inactive)
7 | CN(C(=O)c1ccccc1)c1ccc2c(c1)C(=O)c1ccccc1C2=O | > 100 µM (inactive) | > 100 µM (inactive) | > 100 µM (inactive) | > 100 µM (inactive) | > 100 µM (inactive) | > 100 | > 100 µM (inactive) | > 100 µM (inactive) | > 100 µM (inactive) | > 100 µM (inactive) | – | > 100 µM (inactive) | > 100 µM (inactive) | > 100 µM (inactive) | > 100 µM (inactive) | > 100 µM (inactive) | – | – | > 100 µM (inactive) | –
8 | COc1ccc(N2C(Cl)C(=O)C2c2c[nH]c3ccccc23)cc1 (stereo unspecified) | – | – | – | – | > 100 µM (inactive) | – | > 100 µM (inactive) | > 100 µM (inactive) | > 100 µM (inactive) | > 100 µM (inactive) | > 100 µM (inactive) | > 100 µM (inactive) | > 100 µM (inactive) | > 100 µM (inactive) | > 100 µM (inactive) | – | – | – | > 100 µM (inactive) | 91.8 µM (inactive)
9 | COC1=C2CC(C)CC(OC)C(OC(=O)CN)[C@H](C)/C=C(\C)C(OC(N)=O)C(OC)/C=C\C=C(/C)C(=O)NC(=CC1=O)C2=O (stereo partly specified) | 0.446 µM (active) | 1.46 µM (inactive) | – | 1.9 µM (inactive) | 0.498 µM (active) | 0.899 | – | – | 0.481 µM (active) | 0.708 µM (active) | 1.24 µM (inactive) | 0.412 µM (active) | 0.065 µM (active) | 1.58 µM (inactive) | 0.299 µM (active) | 0.284 µM (active) | 0.339 µM (active) | 9.62 µM (inactive) | 0.507 µM (active) | 6.55 µM (inactive)
10 | O=C1OC2(CC1C1(O)C3CC4CC(C3)CC1C4)C1CC3CC(C1)CC2C3 (stereo unspecified) | > 100 µM (inactive) | – | > 100 µM (inactive) | – | 49.7 µM (inactive) | > 100 | – | > 100 µM (inactive) | 44.6 µM (inactive) | 22.1 µM (inactive) | > 100 µM (inactive) | 65.3 µM (inactive) | 65.9 µM (inactive) | – | 85.1 µM (inactive) | 27.9 µM (inactive) | – | – | > 100 µM (inactive) | –
11 | CC1(C(=O)O)CCC(C(=O)O)C(C)(C)O1 (stereo unspecified) | > 100 µM (inactive) | > 100 µM (inactive) | – | > 100 µM (inactive) | > 100 µM (inactive) | – | – | – | 29.2 µM (inactive) | > 100 µM (inactive) | > 100 µM (inactive) | > 100 µM (inactive) | > 100 µM (inactive) | > 100 µM (inactive) | > 100 µM (inactive) | > 100 µM (inactive) | > 100 µM (inactive) | > 100 µM (inactive) | > 100 µM (inactive) | > 100 µM (inactive)
12 | COC(Cc1cc(C(O)(c2ccc(C(C)(C)C)cc2)c2cc(CC(OC)(c3cc(C(OC)(c4ccc(C(C)(C)C)cc4)c4ccc(C(C)(C)C)cc4)c(C)cc3C)c3cc(C(OC)(c4ccc(C(C)(C)C)cc4)c4ccc(C(C)(C)C)cc4)c(C)cc3C)c(C)cc2C)c(C)cc1C)(c1cc(C(OC)(c2ccc(C(C)(C)C)cc2)c2ccc(C(C)(C)C)cc2)c(C)cc1C)c1cc(C(OC)(c2ccc(C(C)(C)C)cc2)c2ccc(C(C)(C)C)cc2)c(C)cc1C | – | > 75 µM (inactive) | – | > 75 µM (inactive) | > 75 µM (inactive) | > 75 | – | – | > 75 µM (inactive) | > 75 µM (inactive) | > 75 µM (inactive) | > 75 µM (inactive) | > 75 µM (inactive) | > 75 µM (inactive) | > 75 µM (inactive) | > 75 µM (inactive) | > 75 µM (inactive) | > 75 µM (inactive) | > 75 µM (inactive) | > 75 µM (inactive)
